Several values for one entry are separate records, joined by “and”; a condition that tells them apart may be missing. Equal entries are not always repeated.
Assays:
E. coli harboring pUD15 = format: cell-based
[1] = tested on: E. coli harboring pUD15 and pUD16; format: cell-based

SMILES: [Cl-].[Cl-].[Co+2] [CoC12, CoCl2]
- optical density of the culture at 600 nm (E. coli harboring pUD15): 2.808 and 2.6955 and 2.330
- optical density of the culture at 600 nm [1]: 2.524 and 2.173 and 2.113
